Source: patent publication US8003785B2 (Takeda Pharmaceutical Company Limited, priority 2008, dated 2011)

Biological target: T1, PLK1 (Homo sapiens, UniProt P53350)
T1 construct: Full-length, active GST-PLK1 is purified from Sf9 insect cells; made in house; host or cells: Sf9 insect cells
Experiment: Biochemical Characterization Assay: HTRF kinase assay, GST-PLK1 phosphorylation of GST-p53
Conditions: GST-PLK1, GST-p53 substrate
Outline: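 HTRF read-out of p53 phosphorylation: after EDTA stop, anti-phospho-p53 antibody bound 30 min at 37 °C in HEPES pH 7 buffer, with Eu-anti-rabbit/APC-anti-GST detection. Kinase step used full-length Sf9-expressed GST-PLK1 (3 ug/mL) and E. coli GST-p53 substrate, 35 min at 37 °C.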

T1 sequence (P53350 whole entry): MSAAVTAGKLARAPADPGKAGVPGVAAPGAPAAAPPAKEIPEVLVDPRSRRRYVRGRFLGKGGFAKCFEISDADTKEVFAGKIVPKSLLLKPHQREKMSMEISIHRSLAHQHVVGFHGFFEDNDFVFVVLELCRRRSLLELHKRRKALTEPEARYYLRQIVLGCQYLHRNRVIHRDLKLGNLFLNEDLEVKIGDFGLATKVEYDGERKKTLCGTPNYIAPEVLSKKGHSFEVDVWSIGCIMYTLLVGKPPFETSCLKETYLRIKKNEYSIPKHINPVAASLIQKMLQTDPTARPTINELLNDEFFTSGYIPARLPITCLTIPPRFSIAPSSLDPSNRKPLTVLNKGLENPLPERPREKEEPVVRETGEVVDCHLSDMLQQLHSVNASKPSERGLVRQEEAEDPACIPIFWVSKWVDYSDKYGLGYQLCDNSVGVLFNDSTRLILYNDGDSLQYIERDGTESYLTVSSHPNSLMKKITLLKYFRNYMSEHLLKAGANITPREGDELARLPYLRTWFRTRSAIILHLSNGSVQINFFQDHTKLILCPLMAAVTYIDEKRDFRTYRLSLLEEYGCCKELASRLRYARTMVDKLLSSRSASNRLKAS

Compound | IC50 (ATP) | IC50
COc1cc(C(=O)NCCN2CCCCC2)ccc1Nc1ncc2c(n1)N(C1CCCC1)CC(F)(F)C(=O)N2C [Example I-114, 4-(9-cyclopentyl-7,7-difluoro-5-methyl-6-oxo-6,7,8,9-tetrahydro-5H-pyrimido[4,5-b][1,4]diazepin-2-ylamino)-3-methoxy-N-(2-piperidin-1-yl-ethyl)-benzamide] | 0.001 to 0.05 µM | 
CCN(CC)CCCNC(=O)c1ccc(Nc2ncc3c(n2)N(C2CCCC2)CC(F)(F)C(=O)N3C)c(OC)c1 [Example I-123, 4-(9-cyclopentyl-7,7-difluoro-5-methyl-6-oxo-6,7,8,9-tetrahydro-5H-pyrimido[4,5-b][1,4]diazepin-2-ylamino)-N-(3-diethylamino-propyl)-3-methoxy-benzamide] | 0.001 to 0.05 µM | 
COCCNC(=O)c1ccc(Nc2ncc3c(n2)N(C2CCCC2)CC(F)(F)C(=O)N3C)c(OC)c1 [Example I-28, 4-(9-cyclopentyl-7,7-difluoro-5-methyl-6-oxo-6,7,8,9-tetrahydro-5H-pyrimido[4,5-b][1,4]diazepin-2-ylamino)-3-methoxy-N-(2-methoxy-ethyl)-benzamide] | 0.001 to 0.05 µM | 
COc1cc(C(=O)N2CCCCC2)ccc1Nc1ncc2c(n1)N(C1CCCC1)CC(F)(F)C(=O)N2C [Example I-126, 9-cyclopentyl-7,7-difluoro-2-[2-methoxy-4-(piperidine-1-carbonyl)-phenylamino]-5-methyl-5,7,8,9-tetrahydro-pyrimido[4,5-b][1,4]diazepin-6-one] | 0.051 to 0.5 µM | 
COc1cc(C(=O)NCCCNC(C)C)ccc1Nc1ncc2c(n1)N(C1CCCC1)CC(F)(F)C(=O)N2C [Example I-46, 4-(9-cyclopentyl-7,7-difluoro-5-methyl-6-oxo-6,7,8,9-tetrahydro-5H-pyrimido[4,5-b][1,4]diazepin-2-ylamino)-N-(3-isopropylamino-propyl)-3-methoxy-benzamide] | 0.001 to 0.05 µM | 
COc1cc(C(=O)NC2CC2)ccc1Nc1ncc2c(n1)N(C1CCCC1)CC(F)(F)C(=O)N2C [Example I-26, 4-(9-cyclopentyl-7,7-difluoro-5-methyl-6-oxo-6,7,8,9-tetrahydro-5H-pyrimido[4,5-b][1,4]diazepin-2-ylamino)-N-cyclopropyl-3-methoxy-benzamide] | 0.001 to 0.05 µM | 
O=C(NC1CCOCC1)c1ccc(Nc2ncc3c(n2)N(C2CCCC2)CC(F)(F)C(=O)N3)cc1 [Example I-136, 4-(9-cyclopentyl-7,7-difluoro-6-oxo-6,7,8,9-tetrahydro-5H-pyrimido[4,5-b][1,4]diazepin-2-ylamino)-N-(tetrahydro-pyran-4-yl)-benzamide] | 0.5 to 5 µM | 
COc1cc(C(=O)NCCCN)ccc1Nc1ncc2c(n1)N(C1CCCC1)CC(F)(F)C(=O)N2C [Example I-74, N-(3-amino-propyl)-4-(9-cyclopentyl-7,7-difluoro-5-methyl-6-oxo-6,7,8,9-tetrahydro-5H-pyrimido[4,5-b][1,4]diazepin-2-ylamino)-3-methoxy-benzamide] | 0.001 to 0.05 µM | 
CNC(=O)c1cc(F)c(Nc2ncc3c(n2)N(C2CCCC2)CC(F)(F)C(=O)N3C)cc1F [Example I-238, 4-(9-cyclopentyl-7,7-difluoro-5-methyl-6-oxo-6,7,8,9-tetrahydro-5H-pyrimido[4,5-b][1,4]diazepin-2-ylamino)-2,5-difluoro-N-methyl-benzamide] |  | 0.001 to 0.05 µM
CCc1cc(C(=O)NCCCN(C)C)ccc1Nc1ncc2c(n1)N(C1CCCC1)CC(F)(F)C(=O)N2C [Example I-199, 4-(9-cyclopentyl-7,7-difluoro-5-methyl-6-oxo-6,7,8,9-tetrahydro-5H-pyrimido[4,5-b][1,4]diazepin-2-ylamino)-N-(3-dimethylamino-propyl)-3-ethyl-benzamide] |  | 0.001 to 0.05 µM
COc1cc(C(=O)O)ccc1Nc1ncc2c(n1)N(C1CCC1)CC(F)(F)C(=O)N2C [Example I-1, 4-(9-cyclobutyl-7,7-difluoro-5-methyl-6-oxo-6,7,8,9-tetrahydro-5H-pyrimido[4,5-b][1,4]diazepin-2-ylamino)-3-methoxy-benzoic acid] | 0.001 to 0.05 µM | 
Cc1cc(C(N)=O)ccc1Nc1ncc2c(n1)N(C1CCCC1)CC(F)(F)C(=O)N2C [Example I-193, 4-(9-cyclopentyl-7,7-difluoro-5-methyl-6-oxo-6,7,8,9-tetrahydro-5H-pyrimido[4,5-b][1,4]diazepin-2-ylamino)-3-methyl-benzamide] |  | 0.001 to 0.05 µM
CCN1C(=O)C(F)(F)CN(C2CCCC2)c2nc(Nc3ccc(C(=O)NC4CCOCC4)cc3)ncc21 [Example I-143, 4-(9-cyclopentyl-5-ethyl-7,7-difluoro-6-oxo-6,7,8,9-tetrahydro-5H-pyrimido[4,5-b][1,4]diazepin-2-ylamino)-N-(tetrahydro-pyran-4-yl)-benzamide] | 0.5 to 5 µM | 
COc1cc(C(=O)N[C@@H]2CCNC(=O)C2)ccc1Nc1ncc2c(n1)N(C1CCCC1)CC(F)(F)C(=O)N2C [Example I-89, R-4-(9-cyclopentyl-7,7-difluoro-5-methyl-6-oxo-6,7,8,9-tetrahydro-5H-pyrimido[4,5-b][1,4]diazepin-2-ylamino)-3-methoxy-N-(2-oxo-piperidin-4-yl)-benzamide] | 0.001 to 0.05 µM | 
CN1CCC(NC(=O)c2ccc(Nc3ncc4c(n3)N(C3CCCC3)CC(F)(F)C(=O)N4C)c(F)c2F)CC1 [Example I-243] |  | 0.001 to 0.05 µM
COc1cc(C(=O)NCC2CCN(C(=O)OC(C)(C)C)C2)ccc1Nc1ncc2c(n1)N(C1CCCC1)CC(F)(F)C(=O)N2C (stereo not shown) [Example I-92, 3-{[4-(9-cyclopentyl-7,7-difluoro-5-methyl-6-oxo-6,7,8,9-tetrahydro-5H-pyrimido[4,5-b][1,4]diazepin-2-ylamino)-3-methoxy-benzoylamino]-methyl}-pyrrolidine-1-carboxylic acid tert-butyl ester] | 0.051 to 0.5 µM | 
COc1cc(C(N)=O)ccc1Nc1ncc2c(n1)N(CCCc1ccccc1)CC(F)(F)C(=O)N2C [Example I-283, 4-[7,7-difluoro-5-methyl-6-oxo-9-(3-phenyl-propyl)-6,7,8,9-tetrahydro-5H-pyrimido[4,5-b][1,4]diazepin-2-ylamino]-3-methoxy-benzamide] |  | 0.051 to 0.5 µM
CN1C(=O)C(F)(F)CN(C2CCCC2)c2nc(Nc3cc(F)c(C(=O)NC4CCOCC4)cc3F)ncc21 [Example I-235, 4-(9-cyclopentyl-7,7-difluoro-5-methyl-6-oxo-6,7,8,9-tetrahydro-5H-pyrimido[4,5-b][1,4]diazepin-2-ylamino)-2,5-difluoro-N-(tetrahydro-pyran-4-yl)-benzamide] |  | 0.001 to 0.05 µM
COc1cc(C(=O)NN2CCN(C)CC2)ccc1Nc1ncc2c(n1)N(C1CCCC1)CC(F)(F)C(=O)N2C [Example I-118, 4-(9-cyclopentyl-7,7-difluoro-5-methyl-6-oxo-6,7,8,9-tetrahydro-5H-pyrimido[4,5-b][1,4]diazepin-2-ylamino)-3-methoxy-N-(4-methyl-piperazin-1-yl) benzamide] | 0.001 to 0.05 µM | 
CN1C(=O)C(F)(F)CN(C2CCCC2)c2nc(Nc3cc(F)c(C(N)=O)cc3F)ncc21 [Example I-241, 4-(9-cyclopentyl-7,7-difluoro-5-methyl-6-oxo-6,7,8,9-tetrahydro-5H-pyrimido[4,5-b][1,4]diazepin-2-ylamino)-2,5-difluoro-benzamide] |  | 0.001 to 0.05 µM
CCCN1C(=O)C(F)(F)CN(C2CCCC2)c2nc(Nc3ccc(C(=O)NC4CCOCC4)cc3OC)ncc21 [Example I-167, 4-(9-cyclopentyl-7,7-difluoro-6-oxo-5-propyl-6,7,8,9-tetrahydro-5H-pyrimido[4,5-b][1,4]diazepin-2-ylamino)-3-methoxy-N-(tetrahydro-pyran-4-yl)-benzamide] |  | 0.5 to 5 µM
COc1cc(C(=O)O)ccc1Nc1ncc2c(n1)N(CCc1cccs1)CC(F)(F)C(=O)N2C [Example I-269, 4-[7,7-difluoro-5-methyl-6-oxo-9-(2-thiophen-2-yl-ethyl)-6,7,8,9-tetrahydro-5-pyrimido[4,5-b]diazepin-2-ylamino]-3-methoxy-benzoic acid] |  | 0.051 to 0.5 µM
COc1cc(C(=O)NC2CCN(C)CC2)ccc1Nc1ncc2c(n1)N(CCOc1ccccc1)CC(F)(F)C(=O)N2C [Example I-304, 4-[7,7-difluoro-5-methyl-6-oxo-9-(2-phenoxy-ethyl)-6,7,8,9-tetrahydro-5H-pyrimido[4,5-b][1,4]diazepin-2-ylamino]-3-methoxy-N-(1-methyl-piperidin-4-yl)-benzamide] |  | 0.051 to 0.5 µM
COc1cc(C(=O)NCC2CCCCC2)ccc1Nc1ncc2c(n1)N(C1CCCC1)CC(F)(F)C(=O)N2C [Example I-32, N-cyclohexylmethyl-4-(9-cyclopentyl-7,7-difluoro-5-methyl-6-oxo-6,7,8,9-tetrahydro-5H-pyrimido[4,5-b][1,4]diazepin-2-ylamino)-3-methoxy-benzamide] | 0.051 to 0.5 µM | 
CNC(=O)c1ccc(Nc2ncc3c(n2)N(C(C)C)CC(F)(F)C(=O)N3C)c(OC)c1 [Example I-295, 4-(7,7-difluoro-9-isopropyl-5-methyl-6-oxo-6,7,8,9-tetrahydro-5H-pyrimido[4,5-b][1,4]diazepin-2-ylamino)-3-methoxy-N-methyl-benzamide] |  | 0.001 to 0.05 µM
Cc1cc(C(=O)NCCCN(C)C)ccc1Nc1ncc2c(n1)N(C1CCCC1)CC(F)(F)C(=O)N2C [Example I-189, 4-(9-cyclopentyl-7,7-difluoro-5-methyl-6-oxo-6,7,8,9-tetrahydro-5H-pyrimido[4,5-b][1,4]diazepin-2-ylamino)-N-(3-dimethylamino-propyl)-3-methyl-benzamide] |  | 0.001 to 0.05 µM
CN1C(=O)C(F)(F)CN(C2CCC2)c2nc(Nc3ccc(C(=O)NC4CCOCC4)cc3)ncc21 [Example I-17, 4-(9-cyclobutyl-7,7-difluoro-5-methyl-6-oxo-6,7,8,9-tetrahydro-5H-pyrimido[4,5-b][1,4]diazepin-2-ylamino)-N-(tetrahydro-pyran-4-yl)-benzamide] | 0.001 to 0.05 µM | 
CNC(=O)c1ccc(Nc2ncc3c(n2)N(C2CCCC2)CC(F)(F)C(=O)N3C)c(C)c1 [Example I-190, 4-(9-cyclopentyl-7,7-difluoro-5-methyl-6-oxo-6,7,8,9-tetrahydro-5H-pyrimido[4,5-b][1,4]diazepin-2-ylamino)-3,N-dimethyl-benzamide] |  | 0.001 to 0.05 µM
